This passage reports TGI and GI50 results from PubChem BioAssay (NCI).

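Exposure lasted 48 hours, with cells grown in 96-well plates and compounds tested at five concentrations. At the GI50, growth is halved. TGI: concentration producing complete growth inhibition.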

Assay in all cases: NCI anticancer screen, dose series, 48 h
Assay [1] has as its system 786-0 renal.
Assay [2] deals with COLO 205 colon.
Assay [3] has as its system HCC-2998 colon.
Assay [4] relates to MALME-3M melanoma.
Assay [5] relates to NCI/ADR-RES ovarian.
The test system of assay [6] is OVCAR-8 ovarian.
Assay [7] relates to RXF 393 renal.
In assay [8] the test system is SF-539 CNS.
The subject of assay [9] is SK-MEL-2 melanoma.
For assay [10], the system named is SNB-75 CNS.
For assay [11], the system named is UACC-257 melanoma.

As to `CCc1cc(Cc2cc(CC)c(NC(=O)C(=O)CC(=O)c3sc(-c4cccnc4)nc3C)c(CC)c2)cc(CC)c1NC(=O)C(=O)CC(=O)c1sc(-c2cccnc2)nc1C`, the TGI in assay [1], in [2], in [3], in assay [4], in assay [5] and in [6] was > 100 µM in each case. Besides, the TGI in assay [7], in assay [8], in assay [9], in assay [10] and in [11] was > 100 µM throughout.

Regarding `O=C(NC(Cc1ccccc1)(Cc1ccc(O)cn1)C(=O)O)c1ccccc1` (configuration not stated), the TGI in assay [1], in [2], in assay [3], in assay [4], in [5] and in [6] was > 100 µM throughout. Besides, the TGI in assay [7], in assay [8], in [9], in [10] and in assay [11] was > 100 µM in each case.

`CC(C)=C[C@H]1CCC2(OCCO2)[C@]1(C)COCc1ccccc1`: the TGI in assay [1] was 80.1 µM; in assay [2] it was 32.3 µM; in [3] it was 37.4 µM; in assay [4], > 100 µM; in assay [5], > 100 µM; in [6], > 100 µM. For the same compound, the TGI is 31.7 µM in assay [7]; 61.7 µM in [8]; 85.9 µM in assay [9]; > 100 µM in assay [10]; 46.4 µM in [11].

On to `O=c1c2ccccc2nc(Cc2nc(-c3ccc(Cl)cc3)cs2)n1-c1ccc(Cl)cc1`, for which the TGI in [1], in assay [2], in assay [3], in assay [4], in assay [5] and in [6] was > 100 µM in each case. The TGI in assay [7], in [9], in assay [10] and in assay [11] was > 100 µM each time.

For the compound `CC1(C)OC(=O)N(c2ccccc2)C12C=Cc1cc([N+](=O)[O-])ccc1O2` (configuration not stated), the TGI in [1], in assay [2], in assay [3], in assay [5], in assay [6] and in [7] was > 100 µM in each case. Besides, the TGI in assay [9] was > 100 µM; in [10] it was > 100 µM; in [11], 77 µM.

Turning to `CSc1cc(Cl)c(C)cc1S(=O)(=O)NC(=O)NNc1cccc(C(F)(F)F)n1`, the TGI in assay [1], in assay [2], in assay [3], in assay [4], in [5] and in assay [6] was > 100 µM each time. In addition, the TGI in assay [7], in [8], in assay [9] and in assay [10] was > 100 µM throughout.

On to `Cc1ccc2c(c1)CC1(Cc3ccccc3C1=O)C2=O` (configuration not stated), for which the TGI in assay [1], in assay [2], in [3], in assay [4], in [5] and in assay [6] was > 100 µM in each case. The TGI in assay [7], in [8], in assay [10] and in assay [11] was > 100 µM in each case.

Turning to `CCO/C=N\C1=C(C#N)SC2=N/C(=C\c3ccc(OC)cc3)C(=O)N21`, the TGI in assay [1], in assay [2], in [3], in assay [4], in assay [5] and in assay [6] was > 100 µM throughout. The TGI in assay [7] was > 100 µM; in assay [8], > 100 µM; in assay [10], 46.6 µM; in assay [11], > 100 µM.

As for `O=[N+]([O-])c1ccc(S(=O)(=O)n2c3ccc(Br)cc3c3nc4ccccc4nc32)cc1`, the TGI in assay [1], in [2], in [3], in [5], in assay [6] and in [7] was > 100 µM throughout. In addition, the TGI in [9], in assay [10] and in [11] was > 100 µM in each case.

In the case of `C(/C=C/Nc1ccc(Oc2ccccc2)cc1)=Nc1ccc(Oc2ccccc2)cc1`, the TGI in assay [1] worked out at 32.2 µM; in assay [2] it was 43.6 µM; in [3], 29.4 µM; in assay [4], 33.7 µM; in assay [5] it was 33.5 µM; in assay [6], 38.8 µM. Besides, the TGI stood at 39.6 µM in assay [7], 32.9 µM in [8], 31.9 µM in [10] and 32 µM in assay [11].

Consider `N#C/C(=C/NC(N)=S)C(N)=O`, for which the TGI in assay [1], in [2], in assay [3], in [5], in [6] and in [7] was > 100 µM throughout. In addition, the TGI in [8], in [9], in assay [10] and in [11] was > 100 µM throughout.

For `O=C(/C=C/c1ccc2ccccc2c1)NCc1ccc(C(=O)NCCc2ccccc2)cc1`, the TGI in assay [1], in assay [2], in assay [3], in assay [5], in assay [6] and in [7] was > 100 µM throughout. Moreover, the TGI in assay [9], in assay [10] and in [11] was > 100 µM each time.

With `CC(=O)O[C@H]1C(=O)[C@@]2(C)[C@H]([C@H](OC(=O)c3ccoc3)[C@]3(O)C[C@H](OC(=O)[C@H](O)[C@@H](NC(=O)c4ccccc4)c4ccccc4)C(C)=C1C3(C)C)[C@]1(OC(C)=O)CO[C@@H]1C[C@@H]2O`, the TGI in assay [1] is > 12.5 µM; in assay [3], 0.998 µM; in [5] it was > 12.5 µM; in [6], > 12.5 µM; in assay [7], > 11.8 µM; in [8] it was 0.221 µM. The TGI was 0.696 µM in assay [9], 2.38 µM in assay [10] and > 12.5 µM in [11].

As to `O=C(NCP(=O)(c1ccccc1)c1ccccc1)OCc1ccccc1`, the TGI in assay [1], in [2], in [3], in [4], in assay [5] and in assay [6] was > 100 µM each time. Also, the TGI in assay [7], in assay [8], in assay [9] and in assay [10] was > 100 µM each time.

For `CCOC(=O)CNC(=O)N(CC)C12CC3CC(CC(C3)C1)C2`, the TGI in assay [2] turned out to be 227 µM; in [3], 402 µM; in [4], 278 µM; in assay [5] it was 402 µM; in assay [6], 417 µM; in assay [7] it was 388 µM. In addition, the TGI was 251 µM in assay [8], 205 µM in [9], 361 µM in assay [10] and 322 µM in [11].

Take `CCOC(=O)c1cc2c3ccn(Cc4ccccc4)c3c3c(C)[nH]oc3c2n1`: the TGI in [1], in [2], in [3], in assay [4], in assay [5] and in assay [6] was > 100 µM in each case. For the same compound, the TGI in assay [7], in assay [9], in [10] and in assay [11] was > 100 µM in each case.

On to `COc1ccccc1CNCCCN1C(=O)c2ccc3c4c(ccc(c24)C1=O)C(=O)N(CCCNCCNCCCN)C3=O`, for which the GI50 is 2.25 µM in assay [3]; 1.61 µM in assay [4]; 23.1 µM in [5]; 2.08 µM in assay [6]; 1.65 µM in assay [7]; 2.88 µM in assay [8]. The GI50 in assay [9] was 2.67 µM; in [10] it was 3.07 µM; in assay [11] it was 2.53 µM. The TGI was 10.3 µM in assay [3]; 3.2 µM in [4]; > 100 µM in assay [5]; 11.7 µM in assay [6]; 7.12 µM in assay [7]; 9.58 µM in assay [8]. Moreover, the TGI is 6.49 µM in assay [9], 14.8 µM in assay [10] and 7.96 µM in assay [11].

On to `C1=Cc2cc3c(c4nccc(c24)N1)OCO3`, for which the TGI was 21.2 µM in [1]; 23 µM in assay [2]; 28.6 µM in assay [3]; 26 µM in assay [4]; > 67.2 µM in [5]; > 46.8 µM in assay [6]. For the same compound, the TGI in assay [7] was found to be 5.64 µM; in assay [9], 36.6 µM; in assay [10] it was 28.7 µM; in assay [11], 50.7 µM.

With `Cn1c([C@H](C#N)c2ncccc2[N+](=O)[O-])nc2ccccc21`, the TGI was > 100 µM in assay [1]; > 100 µM in [3]; > 100 µM in assay [4]; > 100 µM in assay [5]; > 100 µM in assay [6]; 97.7 µM in [7]. Further, the TGI is 95.4 µM in assay [8], > 100 µM in assay [9], 67.1 µM in [10] and > 100 µM in [11].
